From patent publication US5354862A, “Preparation and the use of halopropargylated cyclic quaternary ammonium compounds as antimicrobial agents” (Rohm and Haas Company, priority 1993, dated 1994)
Like-named read-outs stand apart in the source and are kept apart here.

Assays:
Assay in all cases: Broth two-fold serial dilution MIC test
[1] = test system: Escherichia coli; type: cell-based, Escherichia coli (ATCC 11229); settings: Ecol
How it was run: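 Broth two-fold serial dilutions ran from 500 down to 0.25 ppm, prepared from a stock in acetone/methanol/water (5:3:2). Each tube received a standardized bacterial suspension and was incubated at a temperature suited to the species. MIC is the lowest concentration giving complete growth inhibition.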

[2] = test system: Staphylococcus aureus; type: cell-based, Staphylococcus aureus (ATCC 6538); settings: Saur
How it was run: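 Broth two-fold serial dilution from 500 ppm down to 0.25 ppm, compound delivered from acetone/methanol/water stock, inoculated with standardized cell suspension and incubated at an organism-appropriate temperature. MIC is the lowest concentration giving complete growth inhibition.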

[3] = test system: Pseudomonas aeruginosa; type: cell-based, Pseudomonas aeruginosa (ATCC 15442); settings: Psae
How it was run: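 Broth two-fold serial dilution MIC (500 to 0.25 ppm) was run against Pseudomonas aeruginosa, with compound from 1% stock in acetone/methanol/water 5:3:2. Vessels inoculated with standardized broth-grown cells were incubated, then scored for growth. MIC is the lowest concentration giving complete growth inhibition.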

[4] = test system: Aspergillus niger; type: cell-based, Aspergillus niger (ATCC 6275); settings: Anig, TSB media
How it was run: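 Two-fold broth serial dilution from 500 ppm down to 0.25 ppm, compound stock in acetone/methanol/water 5:3:2. Vessels inoculated with standardized spore suspension harvested from agar slants, incubated at a species-appropriate temperature, then scored for growth/no growth. MIC is the lowest concentration giving complete growth inhibition.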

[5] = Escherichia coli, Table 2, M9G media, read-out: MIC
[6] = Escherichia coli, Table 2, TSB media, read-out: MIC
[7] = Staphylococcus aureus, Table 2, M9G media, read-out: MIC
[8] = Staphylococcus aureus, Table 2, TSB media, read-out: MIC
[9] = Pseudomonas aeruginosa, Table 2, M9G media, read-out: MIC
[10] = Pseudomonas aeruginosa, Table 2, TSB media, read-out: MIC
[11] = Aspergillus niger, Table 2, read-out: MIC

Row | MIC [1, 5] [µg/mL] | MIC [1, 6] [µg/mL] | MIC [2, 7] [µg/mL] | MIC [2, 8] [µg/mL] | MIC [3, 9] [µg/mL] | MIC [3, 10] [µg/mL] | MIC [4, 11] [µg/mL] | MIC ([1]; Table 2, M9G media) [ppm] | MIC ([1]; Table 2, TSB media) [ppm] | MIC ([4]; Table 2) [ppm] | MIC ([2]; Table 2, M9G media) [ppm] | MIC ([2]; Table 2, TSB media) [ppm] | MIC ([3]; Table 2, M9G media) [ppm] | MIC ([3]; Table 2, TSB media) [ppm] | SMILES | other results
1 | 16 | 32 | 8 | 16 | 250 | 500 | 16 | – | – | – | – | – | – | – | CCCCCCCCCCOC(=O)CC[N+]1(CC#CI)CCCC1 [Compound 97, 1-[2-(decyloxycarbonyl)]ethyl-1-(3-iodopropargyl)-pyrrolidinium 4-methylbenzenesulfonate] | –
2 | – | – | – | – | – | – | – | 2 | 4 | 8 | 0.25 | 2 | 250 | 500 | CCCCCCCCCC[N+]1(CC#CI)CCCC1 [Compound 78, 1-decyl-1-(3-iodopropargyl)-pyrrolidinium bromide] | –
3 | – | – | – | – | – | – | – | 64 | 64 | > 500 | 250 | 250 | > 500 | > 500 | CCCC[N+]1(CC#CI)CCCC1 [Compound 77, 1-n-butyl-1-(3-iodopropargyl)-pyrrolidinium bromide] | –
4 | 125 | 125 | 125 | 250 | > 500 | > 500 | 125 | – | – | – | – | – | – | – | IC#CC[N+]1(Cc2ccccc2)CCOCC1 [Compound 73, 4-benzyl-4-(3-iodopropargyi)-morpholinium 4-methylbenzenesulfonate] | –
5 | 2 | 4 | 2 | 4 | 16 | 125 | 16 | – | – | – | – | – | – | – | CCCCCCCCCCCC[N+]1(CC#CI)CCOCC1 [Compound 90, 4-dodecyl-4-(3-iodopropargyl)-morpholinium methanesulfonate] | –
6 | 16 | 64 | 32 | 64 | 500 | 500 | 32 | – | – | – | – | – | – | – | CCCCCCCCCCOC(=O)CC[N+]1(CC#CI)CCOCC1 [Compound 95, 4-[2-(decyloxycarbonyl)]ethyl-4-(3-iodopropargyl)-morpholinium methanesulfonate] | –
7 | 2 | 8 | 0.5 | 2 | 32 | 64 | 16 | – | – | – | – | – | – | – | CCCCCCCCCCCCOC(=O)C[N+]1(CC#CI)CCOCC1 [Compound 68, 4-(dodecyloxycarbonyl)methyl-4-(3-iodopropargyl)-morpholinium 4-methylbenzenesulfonate] | –
8 | – | – | – | – | – | – | – | 1 | 4 | 2 | 0.25 | 1 | 32 | 64 | CCCCCCCCCCCC[N+]1(CC#CI)CCCC1 [Compound 79, 1-dodecyl-1-(3-iodopropargyl)-pyrrolidinium bromide] | –

The next lines start with the compound.

Row | SMILES | MIC [1, 5] [µg/mL] | MIC [1, 6] [µg/mL] | MIC [2, 7] [µg/mL] | MIC [2, 8] [µg/mL] | MIC [3, 9] [µg/mL] | MIC [3, 10] [µg/mL] | MIC [4, 11] [µg/mL] | MIC ([1]; Table 2, M9G media) [ppm] | MIC ([1]; Table 2, TSB media) [ppm] | MIC ([4]; Table 2) [ppm] | MIC ([2]; Table 2, M9G media) [ppm] | MIC ([2]; Table 2, TSB media) [ppm] | MIC ([3]; Table 2, M9G media) [ppm] | MIC ([3]; Table 2, TSB media) [ppm] | other results
9 | CCCCCCCCCCCCCCCC[N+]1(CC#CI)CC(C)OC(C)C1 (stereo not drawn) [Compound 46, 4-hexadecyl-4-(3-iodopropargyl)-2,6-dimethylmorpholinium 4-methylbenzenesulfonate] | – | – | < 0.25 | < 0.25 | 16 | 16 | – | 8 | 8 | 2 | – | – | – | – | –
10 | OCC[N+]1(CC#CI)CCCC1 [Compound 1, 1-(2-hydroxyethyl)-1-(3-iodopropargyl)-pyrrolidinium 4-methylbenzenesulfonate] | – | > 250 | 16 | 32 | > 250 | 125 | > 250 | – | – | – | – | – | – | – | –
11 | CCCCCCCCCCCCCC[N+]1(CC#CI)CCCCC1C (stereo not drawn) [Compound 54, 1-(tetradecyl)-1-(3-iodopropargyl)-2-methylpiperidinium 4methylbenzenesulfonate] | – | – | – | – | – | – | – | 8 | 16 | 1 | 1 | 8 | 250 | 125 | –
12 | CCCCCCCCCCCC[N+]1(CC#CI)CCCC1 [Compound 30, 1-dodecyl-1-(3-iodopropargyl)-pyrrolidinium benzenesulfonate] | – | – | – | – | – | – | – | 2 | 16 | 1 | 1 | 1 | 63 | 63 | –
13 | CCCCCCCCCCCCCC[N+]1(CC#CI)CCSCC1 [Compound 57, 4-(tetradecyl)-4-(3-iodopropargyl)-thiomorpholinium benzenesulfonate] | < 0.25 | 0.5 | < 0.25 | < 0.25 | 0.5 | 4 | 0.5 | – | – | – | – | – | – | – | –
14 | CCCCCCCCCCCCOC(=O)C[N+]1(CC#CI)CCCC1 [Compound 64, 1-(dodecyloxycarbonyl)methyl-1-(3-iodopropargyl)-pyrrolidinium benzenesulfonate] | – | – | – | – | – | – | – | 1 | 4 | 8 | 0.25 | 0.25 | 32 | 32 | –
15 | CCCCCCCCCCOC(=O)C[N+]1(CC#CI)CCOCC1 [Compound 66, 4-(decyioxycarbonyl)methyl-4-(3-iodopropargyl)-morpholiniurn 4methylbenzenesulfonate] | 2 | 8 | 0.5 | 8 | 64 | 250 | 125 | – | – | – | – | – | – | – | –
16 | OCCCCCCCC[N+]1(CC#CI)CCCCC1 [Compound 23, 1-(8-hydroxyoctyl)-1-(3-iodopropargyl)-1-piperidinium 4-methylbenzenesulfonate] | – | > 500 | 63 | 250 | > 500 | > 500 | > 500 | – | – | – | – | – | – | – | –
17 | CCCCCCCCCCCCCCCC[N+]1(CC#CI)CC(C)OC(C)C1 (stereo not drawn) [Compound 47, 4-hexadecyl-4-(3-iodopropargyl)-2,6-dimethylmorpholinium benzenesulfonate] | – | – | – | – | – | – | – | 2 | 2 | 0.5 | < 0.25 | < 0.25 | 8 | 8 | –
18 | CCCCCCCCCCCCCC[N+]1(CC#CI)CCCC1 [Compound 34, 1-tetradecyl-1-(3-iodopropargyl)-pyrrolidinium benzenesulfonate] | – | – | – | – | – | – | – | 0.25 | 0.25 | 0.25 | < 0.25 | < 0.25 | 2 | 2 | MIC ([1]; Table 3 comparison, M9G media): 0.25 ppm; MIC ([1]; Table 3 comparison, TSB media): 0.25 ppm; MIC ([2]; Table 3 comparison, M9G media): < 0.25 ppm; MIC ([2]; Table 3 comparison, TSB media): < 0.25 ppm; MIC ([3]; Table 3 comparison, M9G media): 2 ppm; MIC ([3]; Table 3 comparison, TSB media): 2 ppm; MIC ([4]; Table 3 comparison): 0.25 ppm
19 | CCCCCCCCCCCCCC[N+]1(CC#CI)C=NCC1.O=S(=O)([O-])c1ccccc1 (stereo not drawn) [Compound 56, 1-(tetradecyl)-1-(3-iodopropargyl)-imidazolinium benzenesulfonate] | – | – | – | – | – | – | – | < 0.25 | < 0.25 | < 0.25 | < 0.25 | < 0.25 | 8 | 63 | –
